# Data reported in patent US20210371413A1, “POLYCYCLIC AMIDES AS CYTOTOXIC AGENTS” (FEMTOGENIX LIMITED, priority 2018, published 2021).
# Columns and labels:
# [1] = test system: 5′-[…]-3′ (poly GC) DNA duplex; assay: FRET DNA melting, poly GC duplex; type: binding; conditions: 5′-AATAGGGGGTCGCCTATT-3′
# Procedure: FRET DNA melting studies were undertaken on 15 and 16 using two fluorescently labelled sequences. The sequences (FIG. 1) were designed to represent poly AT and poly GC sequences.
# The short duplexes used in this FRET study are relatively unstable in the duplex form with a melting temperature below 30° C. so that, in the absence of ligand, a large part of the melting occurs below the starting temperature of the experiment. However, it can be observed that 15 stabilizes the duplex form, producing increases in melting temperature with ΔTm values of […] for 5′-AAAAAAAGAAAAAATIT-3′ (FIG. 2, top panel), and ˜25° C. (FIG. 2, bottom panel).
# Oligonucleotides were obtained from ATDbio (Southampton, UK) in lyophilised form. […]
# The reaction mixture was comprised of 4 μL of 250 mM phosphate buffer (final concentration of 50 mM), 4 μL flourophor and 4 μL quencher molecule of the appropriate oligonucleotide for a final concentration of 0.2 μM, 4 μL 5 M sodium chloride (final concentration of 1 M NaCl), and 4 μL of distilled H2O. […] This mixture was analysed without prior annealing.
# Fluorescence melting profiles were measured using a Roche LightCycler using a total reaction volume of 20 μL. […] Annealing steps and melting steps were all recorded and changes in fluorescence were measured at 520 nm. […]
# [2] = test system: E. coli K12; assay: MIC assay, E. coli K12; type: cell-based; conditions: overnight (16-20 hour) incubation
# Procedure: The antimicrobial activity of a selection of compounds were evaluated in a Gram-negative, Gram-positive and multi-resistant bacteria using the standard minimum inhibitory concentration (MIC) assay for an overnight (16-20 hour) incubation period. Commercially marketed antibiotics (Table 3) were used as positive controls during the study.
# Mueller-Hinton broth (MH Broth) (Sigma-Aldrich; Millipore, cat. no. 70192) and Mueller-Hinton agar (MHA) (Sigma-Aldrich; Millipore, cat. no. 70191) were prepared as per manufacturer's instructions and sterilized by autoclaving. Approximately 20 mL of MHA was poured onto 15×100 mm petri dishes and allowed to set. Agar plates were then stored in plastic bags in an inverted position at 4° C.
# Bacterial strains were provided in the form of a glycerol stock, stored at −80° C. For the purpose of preparation of bacterial suspension, appropriate strains were removed from −80° C. storage onto dry ice and not allowed to freeze-thaw.
# Stock solutions of 16, 45 and 73 were provided in DMSO at 1.28 mg/mL concentration. From this stock solution, working solutions of the desired concentration were prepared by diluting with MHB.
# MIC assay methodology was adapted from previously published work.
# Bacterial isolate to be tested was streaked onto a nutrient-rich MH agar plate and incubated overnight at 37° C. in order to obtain single colonies.
# After overnight incubation, single colonies with the same morphological appearance were chosen from the agar plate. These were touched using a sterile loop and transferred into a tube containing 10 mL of a MH broth. They were then mixed using vortex mixer and incubated at 35-37° C. in a shaker at 200 r.p.m. overnight.
# Determination of OD600 and cfu/mL count OD600 (the optical density of a sample measured at a wavelength of 600 nm) of the overnight culture was measured. Because of the loss of linearity at OD600 values […], it was necessary to dilute the sample until the OD600 value was below 1.0. For all tested bacteria, a dilution of 1:10 was appropriate (100 μL in 900 μL broth).
# The overnight culture was then diluted 1:100 using sterile tubes and MH broth (dilution: 10^−2). Serial dilution was then performed six times until dilution of 10^−8 was reached. 100 μL of dilutions 10^−7 and 10^−8 were plated onto MH agar plates in triplicate using a sterile cell spreader and incubated overnight at 37° C.
# After overnight incubation, colonies on plates were counted and cfu per mL calculated. The following formula was applied: […]
# For the generation of overnight cultures to be used for preparation of the bacterial suspension for MIC tests, a single colony of bacteria was selected using a sterile loop and a sterile tube with MH broth was inoculated followed by overnight incubation at […] in a shaker set to 200 r.p.m.
# After overnight incubation, the OD600 was measured and the overnight culture was diluted accordingly to obtain 1×10^8 cfu/mL.
# Free payload dilutions were prepared as per Table 4.
# 96-well sterile microtiter plates were used for MIC assay. The plate was filled with the respective free payload or positive control antibiotic concentrations in triplicate. 100 μL of broth was pipetted in the sterility control well (SC, column 12) and 50 μL in the growth control well (GC, column 11).
# 1×10^8 cfu/mL bacterial suspension was diluted 1:100 and 50 μL added to each well apart from SC. […]
# The 96-well plates were read using a SpectraMax plate reader at an absorbance of 600 nm. […]
smiles,measurement,setting,value
"COc1cc2c(cc1OCCCC(=O)Nc1cc(C(=O)Nc3ccc(-c4cc(C(=O)Nc5ccc(N)cc5)n(C)c4)cc3)n(C)c1)NC[C@@H]1CCCCN1C2=O [Compound 16, (S)—N-(4-Aminophenyl)-4-(4-(4-(4-((2-methoxy-12-oxo-5,6,6a,7,8,9,10,12-octahydrobenzo[e]pyrido[1,2-a][1,4]diazepin-3-yl)oxy)butanamido)-1-methyl-1H-pyrrole-2-carboxamido)phenyl)-1-methyl-1H-pyrrole-2-carboxamide]",interactivity with the poly-GC sequence (FRET),[1],little interactivity
same,MIC,[2]; E. coli K12 (Gram-negative),2 to 4 µg/mL
same,MIC,"[2]; Escherichia coli, K12, E. coli K12 (Gram-negative)",2 µg/mL
